Data taken from patent US9204653B2, “5-fluoro pyrimidine derivatives” (DOW AGROSCIENCES LLC, priority 2008, dated 2015).
Like-named read-outs stand apart in the source and are kept apart here.

Test system: Mycosphaerella graminicola; Anamorph: Septoria tritici; Bayer Code SEPTTR
Assay: Leaf blotch of wheat, foliar fungicide treatment, one day protectant (1DP) or three day curative (3DC)
Type: in vivo, Septoria tritici on wheat plants (variety Yuma)
Settings: Zymoseptoria tritici, percent disease control rating
[1] = 24 h, one day protectant (1DP), read-out: SETTTR 1DP 25 ppm
[2] = 24 h, one day protectant (1DP), read-out: SEPTTR 1DP 100 ppm
[3] = 72 h, three day curative (3DC), read-out: SEPTTR 3DC 25 ppm
[4] = 72 h, three day curative (3DC), read-out: SEPTTR 3DC 100 ppm

Row | Compound | pest or weed control at 25 ppm [1] [%] | pest or weed control at 100 ppm [2] [%] | pest or weed control at 25 ppm [3] [%] | pest or weed control at 100 ppm [4] [%]
1 | Cc1cc(/C=N/Nc2nc(OCc3ccccc3)ncc2F)n(C)n1 [Compound 152] | 26 to 50 | 76 to 100 | 26 to 50 | 76 to 100
2 | N#Cc1cccc(COc2ncc(F)c(NCO)n2)c1 [Compound 153] | 76 to 100 | 76 to 100 | 76 to 100 | 76 to 100
3 | Nc1nc(OCc2c(F)cc(Br)cc2F)ncc1F [Compound 154] | 76 to 100 | 76 to 100 | 76 to 100 | 76 to 100
4 | Nc1nc(OCc2ccc(F)c(Br)c2)ncc1F [Compound 156] | 76 to 100 | 76 to 100 | 76 to 100 | 76 to 100
5 | O=[N+]([O-])c1ccccc1SNc1nc(OCc2ccsc2)ncc1F [Compound 157] | 26 to 50 | 76 to 100 | 26 to 50 | 26 to 50
6 | COCCCOc1ncc(F)c(NC(=O)Nc2ccsc2)n1 [Compound 159] | 0 to 25 | 0 to 25 | 26 to 50 | 0 to 25
7 | CN1CCCC/C1=N\c1nc(OCc2ccc(F)cc2)ncc1F [Compound 160] | 76 to 100 | 76 to 100 | 76 to 100 | 76 to 100
8 | COc1cccc(COc2ncc(F)c(NO)n2)c1 [Compound 161] | 76 to 100 | 76 to 100 | 26 to 50 | 76 to 100
9 | Cc1ccc(COc2ncc(F)c(NCOCc3ccccc3)n2)cc1 [Compound 162] | 26 to 50 | 76 to 100 | 0 to 25 | 0 to 25
10 | N#Cc1cccc(COc2ncc(F)c(NCOCc3ccccc3)n2)c1 [Compound 167] | 0 to 25 | 26 to 50 | 0 to 25 | 0 to 25
11 | Fc1ccccc1CNc1nc(OCc2cccs2)ncc1F [Compound 168] | 0 to 25 | 26 to 50 | 0 to 25 | 26 to 50
12 | CCCNC(=O)Nc1nc(OCc2ccc(OC)c(F)c2)ncc1F [Compound 170] | 0 to 25 | 0 to 25 | 0 to 25 | 0 to 25
13 | CCc1ccc(COc2ncc(F)c(N)n2)cc1 [Compound 171] | 76 to 100 | 76 to 100 | 76 to 100 | 76 to 100
14 | COCCOc1ncc(F)c(N)n1 [Compound 172] | 0 to 25 | 0 to 25 | 0 to 25 | 0 to 25
15 | CC(Oc1ncc(F)c(N)n1)c1ccc(C(C)(C)C)cc1Cl (stereo not shown) [Compound 173] | 51 to 75 | 76 to 100 | 0 to 25 | 51 to 75
16 | COCCOC(=O)Nc1nc(OCc2ccccc2)ncc1F [Compound 174] | 76 to 100 | 76 to 100 | 76 to 100 | 76 to 100
17 | CC(Oc1ncc(F)c(N)n1)c1ccc(-c2ccc(Br)cc2)cc1 (stereo not shown) [Compound 175] | 76 to 100 | 76 to 100 | 0 to 25 | 0 to 25
18 | CCOC(=O)COC(=O)Nc1nc(OCc2ccc(C)cc2)ncc1F [Compound 176] | 51 to 75 | 76 to 100 | 76 to 100 | 76 to 100
19 | N#Cc1cccc(COc2ncc(F)c(/N=C/N3CCOCC3)n2)c1 [Compound 177] | 76 to 100 | 76 to 100 | 76 to 100 | 76 to 100
20 | Nc1nc(OCc2ccc3c(c2)OCO3)ncc1F [Compound 178] | 76 to 100 | 76 to 100 | 76 to 100 | 76 to 100
21 | CC(=O)Nc1nc(OCc2ccc(C)cc2)ncc1F [Compound 179] | 76 to 100 | 76 to 100 | 76 to 100 | 76 to 100
22 | Nc1nc(O/N=C2\CCc3ccccc32)ncc1F [Compound 181] | 76 to 100 | 76 to 100 | 76 to 100 | 76 to 100
